Laboratory results taken from US20040053822A1, “Inducing cellular immune responses to mage2/3 using peptide and nucleic acid compositions” (priority 2002, published 2004).
Residues, ends and D or L forms follow the SMILES beside them.

What was measured:
HLA-B*0702 = HLA-B*0702 (Homo sapiens, UniProt P01889); assay: Purified HLA class I peptide binding assay, B*0702; details: binding affinity, HLA-B7 supermotif-bearing peptides
HLA-B*3501 = HLA-B*3501 (Homo sapiens, UniProt P01889, A329T/A93T/A95T/C349S/D201E/D98Y/E176V/E187L/E204Q/E69T/I218V/K202T/L119I/Q94N/R155S/R180L/S121R/S35A/S48A/T118I/V127L/V306I/V36M/Y140S/Y91F); assay: Purified HLA class I peptide binding assay, B*3501; details: binding affinity, HLA-B7 supermotif-bearing peptides
HLA-B*5101 (B51) = HLA-B*5101 (B51) (Homo sapiens, UniProt P01889, A329T/A93T/A95T/C349S/D138N/D201E/D98Y/E187L/E204Q/E69T/G107R/I218V/K202T/L105A/L119W/N104I/Q94N/R106L/R155S/R180L/S101N/S121T/S35A/S48A/V306I/V36M/Y195H/Y91F); assay: Purified HLA class I peptide binding assay, B51; details: binding affinity, HLA-B7 supermotif-bearing peptides; read-out: B*5101 nM
HLA-B*5301 = HLA-B*5301 (Homo sapiens, UniProt P01889, A329T/A93T/A95T/C349S/D201E/D98Y/E176V/E187L/E204Q/E69T/G107R/I218V/K202T/L105A/L119I/N104I/Q94N/R106L/R155S/R180L/S101N/S121R/S35A/S48A/T118I/V127L/V306I/V36M/Y140S/Y91F); assay: Purified HLA class I peptide binding assay, B*5301; details: binding affinity, HLA-B7 supermotif-bearing peptides
HLA-B*5401 = HLA-B*5401 (Homo sapiens, UniProt P01889, A329T/C349S/D138N/D201E/E176V/E187T/E204Q/E69G/I76V/K202T/L119W/R155S/R180L/S121T/S35A/S48A/V127L/V306I/V36M/Y140L); assay: Purified HLA class I peptide binding assay, B*5401; details: binding affinity, HLA-B7 supermotif-bearing peptides

IC50 (HLA-B*0702) [nM]	IC50 (HLA-B*3501) [nM]	IC50 (HLA-B*5101 (B51)) [nM]	IC50 (HLA-B*5301) [nM]	IC50 (HLA-B*5401) [nM]	Compound
7.4	3600	70	465	127	CC[C@H](C)[C@H](NC(=O)[C@H](Cc1ccc(O)cc1)NC(=O)[C@H](CO)NC(=O)[C@@H](NC(=O)[C@H](CCC(=O)O)NC(=O)[C@@H](NC(=O)[C@H](CC(C)C)NC(=O)[C@H](C)NC(=O)[C@H](CCCNC(=N)N)NC(=O)[C@@H]1CCCN1C(=O)[C@@H](N)Cc1ccccc1)[C@@H](C)CC)[C@@H](C)O)C(=O)O (H-FPRALIETSYI-OH; N-terminus and C-terminus assumed)
63	139	5.7	8.5	2.9	CC[C@H](C)[C@H](NC(=O)[C@H](Cc1ccccc1)NC(=O)[C@@H](NC(=O)[C@H](Cc1ccc(O)cc1)NC(=O)[C@H](CC(C)C)NC(=O)[C@H](Cc1c[nH]cn1)NC(=O)CNC(=O)[C@@H](NC(=O)[C@@H]1CCCN1C(=O)[C@@H](N)Cc1ccccc1)[C@@H](C)CC)[C@@H](C)CC)C(=O)O
